Among the data in ChEMBL document CHEMBL1148388, “Restriction of a peptide turn conformation and conformational analysis of guanidino group using arginine-proline fused amino acids: application to mini atrial natriuretic peptide on binding to the receptor” (J Med Chem, 2004) are EC50 and Ratio values, retold here.

Molecules are shown by their SMILES. Numbered stars: 1 amine (or outer) side, 2 acyl side, 3 side chain; on linkers, the order of the positions; unused ones are H or OH. Bridge positions count the residues as written; N and C are the ends. Square brackets hold non-standard residues; d marks the D form. Peptide text beside a SMILES is read from it. X2 = NC(N)=NCC[C@@H]1C[C@@H](C(=O)[*:2])N([*:1])C1; X1 = NC(N)=NCC[C@H]1C[C@@H](C(=O)[*:2])N([*:1])C1

As usually defined, the EC50 is the concentration giving half of the maximal effect. A low value points to higher potency in that assay.

One experiment can be described thus: Effective concentration required for production of cGMP in Chinese hamster ovary cells expressing natriuretic peptide receptor A (NPR-A). Type of experiment: functional, cell-based.
With `CC[C@H](C)[C@@H]1NC(=O)[C@H](CCCN=C(N)N)NC(=O)[C@H](CC(=O)O)NC(=O)[C@H](CCSC)NC(=O)[C@@H]2C[C@H](CCN=C(N)N)CN2C(=O)CNC(=O)CNC(=O)[C@H](Cc2ccccc2)NC(=O)[C@H](Cc2c[nH]cn2)NC(=O)[C@@H](NC(=O)[C@@H](N)CCSC)CSSC[C@@H](C(=O)N[C@@H](Cc2ccc(O)cc2)C(=O)N[C@@H](CCCN=C(N)N)C(N)=O)NC(=O)[C@H](CO)NC1=O` (H-MCHFGG[X1]MDRISCYR-NH2; disulfide 2-13), the concentration giving a half-maximal response (EC50) came out at 4.6 nM.

Compound `CC[C@H](C)[C@@H]1NC(=O)[C@H](CCCN=C(N)N)NC(=O)[C@H](CC(=O)O)NC(=O)[C@H](CCSC)NC(=O)[C@@H]2CCCN2C(=O)CNC(=O)CNC(=O)[C@H](Cc2ccccc2)NC(=O)[C@H](Cc2c[nH]cn2)NC(=O)[C@@H](NC(=O)[C@@H](N)CCSC)CSSC[C@@H](C(=O)N[C@@H](Cc2ccc(O)cc2)C(=O)N[C@@H](CCCN=C(N)N)C(N)=O)NC(=O)[C@H](CO)NC1=O` showed an EC50 of 58.1 nM.

The compound `CC[C@H](C)[C@@H]1NC(=O)[C@H](CCCN=C(N)N)NC(=O)[C@H](CC(=O)O)NC(=O)[C@H](CCSC)NC(=O)[C@H](C)NC(=O)CNC(=O)CNC(=O)[C@H](Cc2ccccc2)NC(=O)[C@H](Cc2c[nH]cn2)NC(=O)[C@@H](NC(=O)[C@@H](N)CCSC)CSSC[C@@H](C(=O)N[C@@H](Cc2ccc(O)cc2)C(=O)N[C@@H](CCCN=C(N)N)C(N)=O)NC(=O)[C@H](CO)NC1=O` had an EC50 of 137 nM.

In the case of `CC[C@H](C)[C@@H]1NC(=O)[C@H](CCCN=C(N)N)NC(=O)[C@H](CC(=O)O)NC(=O)[C@H](CCSC)NC(=O)[C@@H]2C[C@@H](CCN=C(N)N)CN2C(=O)CNC(=O)CNC(=O)[C@H](Cc2ccccc2)NC(=O)[C@H](Cc2c[nH]cn2)NC(=O)[C@@H](NC(=O)[C@@H](N)CCSC)CSSC[C@@H](C(=O)N[C@@H](Cc2ccc(O)cc2)C(=O)N[C@@H](CCCN=C(N)N)C(N)=O)NC(=O)[C@H](CO)NC1=O` (H-MCHFGG[X2]MDRISCYR-NH2; disulfide 2-13), a half-maximal response (EC50) required 1.3 nM.

The nature of another experiment: Relative biological activity was measured as EC50 analogue/ EC50 miniANP. Type of experiment: functional.
For the compound `CC[C@H](C)[C@@H]1NC(=O)[C@@H](CCCN=C(N)N)NC(=O)[C@H](CC(=O)O)NC(=O)[C@@H](CCSC)NC(=O)[C@H](CCCN=C(N)N)NC(=O)CNC(=O)CNC(=O)[C@@H](Cc2ccccc2)NC(=O)[C@H](Cc2c[nH]cn2)NC(=O)[C@@H](NC(=O)[C@@H](N)CCSC)CSSC[C@H](C(=O)N[C@@H](Cc2ccc(O)cc2)C(=O)N[C@@H](CCCN=C(N)N)C(N)=O)NC(=O)[C@@H](CO)NC1=O` [MiniANP], the Ratio is 1.

For the compound `CC[C@H](C)[C@@H]1NC(=O)[C@@H](CCCN=C(N)N)NC(=O)[C@H](CC(=O)O)NC(=O)[C@@H](CCSC)NC(=O)[C@H](C)NC(=O)CNC(=O)CNC(=O)[C@@H](Cc2ccccc2)NC(=O)[C@H](Cc2c[nH]cn2)NC(=O)[C@@H](NC(=O)[C@@H](N)CCSC)CSSC[C@H](C(=O)N[C@@H](Cc2ccc(O)cc2)C(=O)N[C@@H](CCCN=C(N)N)C(N)=O)NC(=O)[C@@H](CO)NC1=O`, the Ratio turned out to be 44.3.

`CC[C@H](C)[C@@H]1NC(=O)[C@@H](CCCN=C(N)N)NC(=O)[C@H](CC(=O)O)NC(=O)[C@@H](CCSC)NC(=O)[C@@H]2CCCN2C(=O)CNC(=O)CNC(=O)[C@@H](Cc2ccccc2)NC(=O)[C@H](Cc2c[nH]cn2)NC(=O)[C@@H](NC(=O)[C@@H](N)CCSC)CSSC[C@H](C(=O)N[C@@H](Cc2ccc(O)cc2)C(=O)N[C@@H](CCCN=C(N)N)C(N)=O)NC(=O)[C@@H](CO)NC1=O`: the Ratio was 18.7.
